molecular target: GABAA receptor ([35S]-TBPS binding, rat brain cortical membranes); assay: Steroid inhibition of [35S]-TBPS binding; conditions: Table I-1, 3 nM [35S]-TBPS, in the presence of 5 mM GABA, read-out: TBPS binding IC50
Procedure: [^35S]-t-Butylbicyclophosphorothionate (TBPS) binding assays using rat brain cortical membranes in the presence of 5 mM GABA has been described (Gee et al, J. Pharmacol. Exp. Ther. 1987, 241, 346-353; Hawkinson et al, Mol. Pharmacol. 1994, 46, 977-985; Lewin, A. H et al., Mol. Pharmacol. 1989, 35, 189-194).
Briefly, cortices are rapidly removed following decapitation of carbon dioxide-anesthetized Sprague-Dawley rats (200-250 g). The cortices are homogenized in 10 volumes of ice-cold 0.32 M sucrose using a glass/teflon homogenizer and centrifuged at 1500×g for 10 min at 4° C. The resultant supernatants are centrifuged at 10,000×g for 20 min at 4° C. to obtain the P2 pellets. The P2 pellets are resuspended in 200 mM NaCl/50 mM Na—K phosphate pH 7.4 buffer and centrifuged at 10,000×g for 10 min at 4° C. This washing procedure is repeated twice and the pellets are resuspended in 10 volumes of buffer. Aliquots ([…]) of the membrane suspensions are incubated with 3 nM [^35S]-TBPS and […] aliquots of test drug dissolved in dimethyl sulfoxide (DMSO) (final 0.5%) in the presence of 5 mM GABA. The incubation is brought to a final volume of 1.0 mL with buffer. Nonspecific binding is determined in the presence of […] and ranged from 15 to 25%. Following a 90 min incubation at room temp, the assays are terminated by filtration through glass fiber filters (Schleicher and Schuell No. 32) using a cell harvester (Brandel) and rinsed three times with ice-cold buffer. Filter bound radioactivity is measured by liquid scintillation spectrometry. Non-linear curve fitting of the overall data for each drug averaged for each concentration is done using Prism (GraphPad). […] The concentration of test compound producing 50% inhibition (IC50) of specific binding and the maximal extent of inhibition (Imax) are determined for the individual experiments with the same model used for the overall data and then the means±SEM.s of the individual experiments are calculated.
Various compounds are or can be screened to determine their potential as modulators of [^35S]-TBPS binding in vitro. These assays are or can be performed in accordance with the above.

SMILES | IC50
C[C@@]1(O)CC[C@]2(C)[C@H]3CC[C@]4(C)[C@@H](C(=O)CNc5ccccc5)CC[C@H]4[C@@H]3CC[C@]2(C)C1 [I-A3, 1-((3R,5R,8S,9S,10R,13S,14S,17S)-3-hydroxy-3,5,10,13-tetramethylhexadecahydro-1H-cyclopenta [a]phenanthren-17-yl)-2-(phenylamino)ethan-1-one] | 100 to 1000 nM
CC(=O)[C@H]1CC[C@H]2[C@@H]3CC[C@]4(C)C[C@@](C)(O)CC[C@]4(C)[C@H]3CC[C@]12C [I-A5, 1-((3S,5R,8S,9S,10R,13S,14S,17S)-3-hydroxy-3,5,10,13-tetramethylhexadecahydro-1H-cyclopenta[a]phenanthren-17-yl)ethan-1-one] | 1000 to 10000 nM
C[C@@]1(O)CC[C@]2(C)[C@H]3CC[C@]4(C)[C@@H](C(=O)Cn5cc(C#N)cn5)CC[C@H]4[C@@H]3CC[C@]2(C)C1 [I-A4, 1-(2-((3R,5R,8S,9S,10R,13S,14S,17S)-3-hydroxy-3,5,10,13-tetramethylhexadecahydro-1H-cyclopenta[a]phenanthren-17-yl)-2-oxoethyl)-1H-pyrazole-4-carbonitrile] | 100 to 1000 nM
C[C@@]1(O)CC[C@]2(C)[C@H]3CC[C@]4(C)[C@@H](C(=O)Cn5cc6ccncc6n5)CC[C@H]4[C@@H]3CC[C@]2(C)C1 [I-A6, 1-((3R,5R,8S,9S,10R,13S,14S,17S)-3-hydroxy-3,5,10,13-tetramethylhexadecahydro-1H-cyclopenta[a]phenanthren-17-yl)-2-(2H-pyrazolo[3,4-c]pyridin-2-yl)ethan-1-one] | 100 to 1000 nM
CC(=O)[C@H]1CC[C@H]2[C@@H]3CC[C@]4(C)C[C@](C)(O)CC[C@]4(C)[C@H]3CC[C@]12C [I-B6, 1-((3R,5R,8S,9S,10R,13S,14S,17S)-3-hydroxy-3,5,10,13-tetramethylhexadecahydro-1H-cyclopenta [a]phenanthren-17-yl)ethan-1-one] | 100 to 1000 nM

same assay, conditions: Table II-2, 3 nM [35S]-TBPS, in the presence of 5 mM GABA, read-out: TBPS IC50

SMILES | IC50
CCOC[C@@]1(O)CC[C@@]2(CC)[C@H](CC[C@H]3[C@@H]4CC[C@H](C(=O)Nc5ccccc5)[C@@]4(C)CC[C@@H]32)C1 [II-46, (3R,5R,85,95,10S,13S,14S,17S)-3-(ethoxymethyl)-10-ethyl-3-hydroxy-13-methyl-N-phenylhexadecahydro-1H-cyclopenta[a]phenanthrene-17-carboxamide] | 10 to 100 nM
CC[C@]12CC[C@@](C)(O)C[C@H]1CC[C@H]1[C@@H]3CC[C@H](C(=O)c4ccccc4C)[C@@]3(C)CC[C@@H]12 [II-G5, ((3R,5R,8S,9S,10S,13S,14S,17S)-10-ethyl-3-hydroxy-3,13-dimethylhexadecahydro-1H-cyclopenta [a]phenanthren-17-yl)(o-tolyl)methanone] | 10 to 100 nM
CCOC[C@@]1(O)CC[C@@]2(CC)[C@@H](CC[C@H]3[C@@H]4CC[C@H](C(=O)Nc5ccc(C#N)cc5C)[C@@]4(C)CC[C@@H]32)C1 [II-63] | 10 to 100 nM
CC[C@]12CC[C@@](C)(O)C[C@H]1CC[C@H]1[C@@H]3CC[C@H](C(=O)Cn4nnc5cc(OC)ccc54)[C@@]3(C)CC[C@@H]12 (single isomer, unassigned) [II-M2a] | < 10 nM
CCOC[C@@]1(O)CC[C@@]2(CC)[C@H](CC[C@H]3[C@@H]4CC[C@H](C(=O)Nc5ccccc5C)[C@@]4(C)CC[C@@H]32)C1 [II-47, (3R,5R,8S,9S,10S,13S,14S,17S)-3-(ethoxymethyl)-10-ethyl-3-hydroxy-13-methyl-N-(o-tolyl)hexadecahydro-1H-cyclopenta[a]phenanthrene-17-carboxamide] | < 10 nM
CC[C@]12CC[C@@](C)(O)C[C@@H]1CC[C@H]1[C@@H]3CC[C@H](C(=O)CN4CCN(S(C)(=O)=O)CC4)[C@@]3(C)CC[C@@H]12 [II-A10, 1-((3R,5S,8S,9S,10S,13S,14S,17S)-10-ethyl-3-hydroxy-3,13-dimethylhexadecahydro-1H-cyclopenta [a]phenanthren-17-yl)-2-(4-(methylsulfonyl)piperazin-1-yl)ethan-1-one] | 10 to 100 nM
CCOC[C@@]1(O)CC[C@@]2(CC)[C@H](CC[C@H]3[C@@H]4CC[C@H](C(=O)Cn5cc(C#N)cn5)[C@@]4(C)CC[C@@H]32)C1 [II-C8, 1-(2-((3R,5R,8S,9S,10S,13S,14S,17S)-3-(ethoxymethyl)-10-ethyl-3-hydroxy-13-methylhexadecahydro-1H-cyclopenta[a]phenanthren-17-yl)-2-oxoethyl)-1H-pyrazole-4-carbonitrile] | < 10 nM
CCOC[C@@]1(O)CC[C@@]2(CC)[C@H](CC[C@H]3[C@@H]4CC[C@H](C(=O)Nc5ccc(C#N)cc5C)[C@@]4(C)CC[C@@H]32)C1 [II-43, (3R,5R,8S,9S,10S,13S,14S,17S)-N-(4-cyano-2-methylphenyl)-3-(ethoxymethyl)-10-ethyl-3-hydroxy-13-methylhexadecahydro-1H-cyclopenta[a]phenanthrene-17-carboxamide] | < 10 nM
CC[C@]12CC[C@@](C)(O)C[C@H]1CC[C@H]1[C@@H]3CC[C@H](C(=O)Cn4cc(C#N)cn4)[C@@]3(C)CC[C@@H]12 | < 10 nM
CC[C@]12CC[C@@](C)(O)C[C@H]1CC[C@H]1[C@@H]3CC[C@H](C(=O)Cn4nnnc4C)[C@@]3(C)CC[C@@H]12 [II-14a, 1-((3R,5R,8S,9S,10S,13S,14S,17S)-10-ethyl-3-hydroxy-3,13-dimethylhexadecahydro-1H-cyclopenta[a]phenanthren-17-yl)-2-(5-methyl-1H-tetrazol-1-yl)ethan-1-one] | < 10 nM
CC[C@]12CC[C@@](C)(O)C[C@H]1CC[C@H]1[C@@H]3CC[C@H](C(=O)Cn4nnc5ccc(OC)cc54)[C@@]3(C)CC[C@@H]12 (single isomer, unassigned) [II-M2] | < 10 nM
CC[C@]12CC[C@@](C)(O)C[C@H]1CC[C@H]1[C@@H]3CC[C@H](C(=O)Nc4ccccc4)[C@@]3(C)CC[C@@H]12 [II-G3, (3R,5R,8S,9S,10S,13S,14S,17S)-10-ethyl-3-hydroxy-3,13-dimethyl-N-phenylhexadecahydro-1H-cyclopenta Ialphenanthrene-17-carboxamide] | < 10 nM
CCOC[C@@]1(O)CC[C@@]2(CC)[C@H](CC[C@H]3[C@@H]4CC[C@H](C(N)=O)[C@@]4(C)CC[C@@H]32)C1 [II-48, (3R,5R,8S,9S,10S,13S,14S,17S)-3-(ethoxymethyl)-10-ethyl-3-hydroxy-13-methylhexadecahydro-1H-cyclopenta[a]phenanthrene-17-carboxamide] | 100 to 1000 nM
CC[C@]12CC[C@](O)(COC)C[C@H]1CC[C@H]1[C@@H]3CC[C@H](C(=O)N4CCCC[C@@H]4C)[C@@]3(C)CC[C@@H]12 [II-B11, ((3R,5R,8S,9S,10S,13S,14S,17S)-10-ethyl-3-hydroxy-3-(methoxymethyl)-13-methylhexadecahydro-1H-cyclopenta[a]phenanthren-17-yl)((S)-2-methylpiperidin-1-yl)methanone] | 10 to 100 nM
CC[C@]12CC[C@@](C)(O)C[C@H]1CC[C@H]1[C@@H]3CC[C@H](C(=O)Cn4nnc(C)n4)[C@@]3(C)CC[C@@H]12 [II-14, 1-((3R,5R,8S,9S,10S,13S,14S,17S)-10-ethyl-3-hydroxy-3,13-dimethylhexadecahydro-1H-cyclopenta[a]henanthren-17-yl)-2-(5-methyl-2H-tetrazol-2-yl)ethan-1-one] | < 10 nM
CC[C@]12CC[C@@](C)(O)C[C@H]1CC[C@H]1[C@@H]3CC[C@H](C(=O)Cn4nc5ccc(OC)cc5n4)[C@@]3(C)CC[C@@H]12 (single isomer, unassigned) [II-M2b] | < 10 nM
CC[C@]12CC[C@@](C)(O)C[C@@H]1CC[C@H]1[C@@H]3CC[C@H](C(=O)CO)[C@@]3(C)CC[C@@H]12 [II-A11, 1-((3R,5S,8S,9S,10S,13S,14S,17S)-10-ethyl-3-hydroxy-3,13-dimethylhexadecahydro-1H-cyclopenta[a]phenanthren-17-yl)-2-hydroxyethan-1-one] | 10 to 100 nM

same assay, conditions: Table III-1 (biological data), 3 nM [35S]-TBPS, in the presence of 5 mM GABA, read-out: TBPS IC50

SMILES | IC50
CC[C@]12CC[C@H]3[C@@H](CC[C@@H]4C[C@@](O)(COC)CC[C@@H]43)[C@@H]1CC[C@@H]2C(C)=O [III-B15, 1-((3R,5R,8R,9R,10S,13S,14S,17S)-13-ethyl-3-hydroxy-3-(methoxymethyl)hexadecahydro-1H-cyclopenta[a]phenanthren-17-yl)ethan-1-one] | 10 to 100 nM
